Assay results published in patent US11426472B2, “Fibroblast activation protein (FAP) targeted imaging and therapy in fibrosis” (Purdue Research Foundation, priority 2018, dated 2022).

Assays:
[1] = molecular target: T1, mouse FAP (Mus musculus, UniProt P97321); assay: Binding of FAPL_FITC to TGFβ-induced NIH-3T3 cells; format: cell-based
T1 construct: NIH-3T3 cells were induced with TGFβ to express FAP; endogenous in cells; host or cells: NIH-3T3 mouse fibroblasts induced with TGFβ
T1 sequence (P97321 1-761): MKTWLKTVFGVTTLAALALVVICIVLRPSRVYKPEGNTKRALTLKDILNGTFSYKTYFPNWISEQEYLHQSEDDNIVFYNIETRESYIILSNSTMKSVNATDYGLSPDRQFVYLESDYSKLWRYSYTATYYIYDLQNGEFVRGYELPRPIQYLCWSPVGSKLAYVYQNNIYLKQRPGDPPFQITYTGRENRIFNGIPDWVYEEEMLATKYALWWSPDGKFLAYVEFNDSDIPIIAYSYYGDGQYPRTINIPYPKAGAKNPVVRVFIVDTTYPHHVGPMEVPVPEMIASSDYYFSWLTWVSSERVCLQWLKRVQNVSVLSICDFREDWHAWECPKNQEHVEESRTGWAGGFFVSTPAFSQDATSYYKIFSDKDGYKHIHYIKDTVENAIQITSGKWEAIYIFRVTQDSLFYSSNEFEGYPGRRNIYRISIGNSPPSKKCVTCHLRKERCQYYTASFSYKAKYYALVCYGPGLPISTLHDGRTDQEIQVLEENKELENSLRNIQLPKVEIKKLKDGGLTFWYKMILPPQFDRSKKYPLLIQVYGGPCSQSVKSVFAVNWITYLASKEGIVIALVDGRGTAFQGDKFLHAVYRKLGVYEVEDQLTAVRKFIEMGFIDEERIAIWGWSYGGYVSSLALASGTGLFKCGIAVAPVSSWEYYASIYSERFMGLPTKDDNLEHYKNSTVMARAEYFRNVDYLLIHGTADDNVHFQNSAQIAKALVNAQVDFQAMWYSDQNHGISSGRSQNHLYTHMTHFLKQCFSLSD
Source text: FAPL-FITC targets mouse FAP in mouse fibroblast cells. Fluorescence binding affinity study of FAPL_FITC in HLF-hFAP cells. (C) Binding of FAPL_FITC to TGFb induced mouse NIH-3T3 cell line.
In this Example, we have shown that FAPL_FITC can recognize mouse FAP. Briefly, NIH-3T3 cells were induced with TGFβ to express FAP (mimicking the pathogenesis of fibrosis in mice). FAPL_FITC can recognize almost 98% of the cell population that binds to a specific monoclonal antibody against mouse FAP.

[2] = molecular target: T2, human FAP (Homo sapiens, UniProt Q12884); assay: Live cell imaging of FAP-FITC binding and internalization in HLF1-hFAP cells; format: cell-based; conditions: 10 nM
T2 construct: expressed in transfected cells; host or cells: HLF1 human lung fibroblast cell line transfected with FAP (HLF1-hFAP)
T2 sequence (Q12884 1-760): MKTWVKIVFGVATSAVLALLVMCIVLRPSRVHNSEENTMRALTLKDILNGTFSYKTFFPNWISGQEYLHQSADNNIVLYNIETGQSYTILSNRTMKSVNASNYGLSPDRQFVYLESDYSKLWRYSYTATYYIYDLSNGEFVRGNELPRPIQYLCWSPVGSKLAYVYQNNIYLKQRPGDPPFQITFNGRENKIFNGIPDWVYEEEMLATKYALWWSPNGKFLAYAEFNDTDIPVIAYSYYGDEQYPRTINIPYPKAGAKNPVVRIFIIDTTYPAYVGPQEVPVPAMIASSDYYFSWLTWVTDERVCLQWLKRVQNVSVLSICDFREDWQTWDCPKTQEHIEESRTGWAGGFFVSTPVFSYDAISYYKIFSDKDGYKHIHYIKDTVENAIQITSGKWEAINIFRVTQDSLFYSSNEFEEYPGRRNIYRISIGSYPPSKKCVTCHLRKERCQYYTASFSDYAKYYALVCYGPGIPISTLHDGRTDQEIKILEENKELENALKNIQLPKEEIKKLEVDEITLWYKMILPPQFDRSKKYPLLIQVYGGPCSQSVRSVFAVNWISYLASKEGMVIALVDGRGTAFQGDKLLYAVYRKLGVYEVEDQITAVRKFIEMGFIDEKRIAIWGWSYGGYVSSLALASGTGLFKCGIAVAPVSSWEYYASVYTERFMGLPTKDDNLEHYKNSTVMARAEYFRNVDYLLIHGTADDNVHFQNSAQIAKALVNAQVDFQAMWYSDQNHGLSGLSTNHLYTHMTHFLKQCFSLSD
Protocol: FAPL-FITC targets human FAP in HLF1 cells. A) Live cell imaging of FAPL-FITC internalization. confocal microscopy images of HLF1-hFAP cells incubated with FAPL-FITC (10 nM), FAP staining is shown in green. Spatial localization of FAPL-FITC in HLF1-hFAP cell line at 0 min (a), and at 30 min (d). Colocalization of FAP and endosomes: HLF1-hFAP cells incubated with FAPL-FITC followed by staining for endosomes (Rab7a-RFP; red) and nucleus (DRAQ5; blue). The merge of the 3 images is shown on the right (c, and f). Yellow indicated colocalization of FAP with endosomal markers.
HLF1-hFAP cells were seeded in the glass-bottom dish and incubated with adequate amount of endosomes tracker (Rab7a-RFP, ThermoFisher) for overnight. Then cells were incubated with FAP-FITC (10 nM) for 1 hour at 4° C. Followed by staining with […] DRAQ5 nucleus dye (ThermoFisher) and 3 times of PBS washes, spatial localization of FAP-FITC was monitor at given time under ambient temperature by confocal microscope (FV 1000, Olympus). Confocal images were further processed by FV10-ASW, Olympus software.

[3] = tested on: HLF-1 fibroblasts; assay: Collagen gel contraction assay; format: cell-based, human; conditions: 100 nM for 12 hours
Protocol: (§1) PI3KI1 inhibits Akt phosphorylation, proliferation, collagen secretion and collagen gel contraction in HLF-1 fibroblasts. (A) PI3KI1 structure. (B) Confluent HLF-1 fibroblasts were stimulated with TGFβ (1 ng/mL) with indicated PI3KI1 or OMIPALISIB and lysates collected for Western blotting. […] Collagen 1 and αSMA expression was suppressed by 100 nM PI3KI1, but pSMAD2 was not affected by PI3K inhibitors. (C) MTT assay and Caspase 3 and 7 activity (Supplementary data) show PI3KI1 inhibited HLF-1 proliferation at >100 nM. (D) HLF-1 fibroblasts were stimulated with TGFβ (1 ng/mL) for 3 days and level of secreted collagen in culture medium was determined by Sirius Red staining. […] Data are analysis by t-test; *p<0.05, **p<0.01.

[4] = tested on: AKT phosphorylation; assay: Western blot of TGFβ-stimulated HLF-1 fibroblasts: Akt phosphorylation; format: cell-based, human
Protocol: as §1
(§2) Serum starved confluent HLF1 cells were co-incubated in medium containing 1 ng/ml TGFb1 with or without designate concentrations of PI3K inhibitors for 24 hours. Cells were harvested and lysed for Western blot analysis. Following sodium dodecyl sulphate polyacrylamide gel electrophoresis and blocking, membranes were incubated with antibodies to detect pSMAD2^Ser465/467 (#3101, Cell Signalling Technology), or pAkt^Ser473 (#4060, Cell signalling Technology), and signals visualized with ECL Western Blotting Detection Reagents (GE Healthcare). […]

[5] = tested on: HLF-1 fibroblasts; assay: Secreted collagen in HLF1 cells (Sirius Red staining); format: cell-based, human
Protocol: as §1
Confluent HLF1 cells were seeded in DMEM medium containing 10% FBS and then 0.4% serum starvation overnight before stimulation of collagen secretion. TGFb1 (0.1 ng/ml) were added into cells with or without PI3K inhibitors. At 2 days post co-incubation, culture medium was collected for determination of total secreted collagen level. Total collagen level was determined by Sirius Red Total Collagen Detection Kit (Chondrex, Inc). Basically, concentrated sample incubated with […] of Sirius Red Solution with for 20 minutes at room temperature. […] Add […] of Extraction Buffer to the Sirius Red stained pellet and read the OD at 510-550 nm.

[6] = tested on: Collagen 1 and αSMA expression; assay: Western blot of TGFβ-stimulated HLF-1 fibroblasts: Collagen 1 and αSMA expression; format: cell-based, human; conditions: 100 nM, HLF-1, TGFβ 1 ng/mL
Protocol: as §1, §2

[7] = tested on: HLF-1 fibroblasts; assay: MTT assay and Caspase 3 and 7 activity in HLF-1; format: cell-based, human
Protocol: as §1
FIG. 18. Caspase 3 and 7 activity show PI3KI1 inhibited HLF-1 proliferation at >100 nM.

[8] = tested on: IPF fibroblasts; assay: TGFβ-induced Collagen I in IPF patient fibroblasts (molecular crowding assay, high content imaging); format: cell-based, human; conditions: for TGFβ-induced collagen production/secretion: IPF patient fibroblasts, TGFβ 1 ng/mL, 48 h
Protocol: PI3KI1 and PI3KI1-FAPL suppressed TGFβ-induced collagen production in IPF fibroblasts. (B) Confluent IPF fibroblasts were stimulated for 48 h with TGFβ (1 ng/mL) with increasing concentrations of OMIPALISIB or PI3KI1 or PI3KI1-FAPL and Collagen I expression was assayed by molecular crowding assay with high content image analysis. Data are expressed as relative fluorescent intensity over TGFβ treated IPF fibroblasts (C) and cell counts obtained from DAPI counterstaining (D).

[9] = tested on: PI-3 Kinase signaling; conditions: IPF-derived lung fibroblasts; cited from earlier work
[10] = tested on: bleomycin-induced lung fibrosis; assay: Therapy in bleomycin-induced lung fibrosis model (survival, hydroxyproline); format: in vivo, mouse; conditions: for survival: bleomycin-induced mice versus untreated/PBS control; for hydroxyproline/collagen in lung: bleomycin-induced mice, day 21, versus untreated/PBS control
Source text: Therapy with FAP-a targeted Pi3K inhibitor in bleomycin treated mice. (A) Schematic representation of the experimental protocol for induction, treatment and examination of pulmonary fibrosis in a mouse model. (B) Survival probability of the FAPL_PI3KI1 treated mice over the saline control. (C) Hydroxyproline content (ug/lung) of control (saline), bleomycin treated with and without FAPL_PI3KI1 treatment at day 21. (D) Body weight change
8 to 10-week old C57BL/6-NCrl (Strain Code: 027) male mice (Charles River) were anesthetized (mixture of xylazine/ketamine), followed by a single intratracheal injection of freshly prepared 0.75 mg/Kg of bleomycin sulfate (Cayman Chemicals, Cat N13877) in 50 μL of sterile phosphate-buffered saline (PBS). Control mice were injected with 50 μL of sterile PBS. Body weights were monitored throughout the study. To access the FAP expression and fibrosis in the longitudinal study the lungs were harvested at Days 7, 14 and 21 post-bleomycin instillation. For the therapy with FAP-PI3K inhibitor, same procedure was carried out to administer bleomycin and the lungs were harvested at Day 21 to access the therapeutic efficacy (Day 0 was accounted as the day of bleomycin administration).
Total lung collagen was determined by analysis of hydroxyproline as previously described.^30 The right lung was consistently dedicated for this assay to allow comparison. Briefly, harvested right lung was homogenized in PBS (PH 7.4), digested with 12N HCl at 120° C. for 3 hr. Citrate/acetate buffer (PH 6.0) and Chloramine-T solution were added at room temperature for 20 minutes and the samples were incubated with Ehrlich's solution for 15 min at 65° C. Samples were cooled to room temperature and read at 550 nm. Hydroxyproline standards (Sigma, MO) at concentrations between 0 to 100 μg/ml were used to construct a standard curve.

Which results are given for `C[C@H](NC(=O)c1ccnc(CNC(=O)CCC(=O)NC(CSC2CC(=O)N(c3ccc(C4c5ccc(O)cc5OC5=CC(=O)C=CC54)c(C(=O)O)c3)C2=O)C(=O)O)c1)C(=O)N1CC(F)(F)C[C@H]1C#N` (some centres unmarked) [FAPL-FITC]?
cell population recognized among cells binding a monoclonal antibody against mouse FAP [1]: ~98%; binding to hFAP-HLF1 cell line ([2]; confocal microscopy and flow cytometry): binds well with good competition; internalization ([2]; HLF1-hFAP cells): internalized upon receptor engagement

With `COc1ncc(-c2ccc3nccc(-c4ccc(CO)nc4)c3c2)cc1NS(=O)(=O)c1ccc(F)cc1F` [PI3KI1] as the compound, how does the “fibroblast reorganization and contraction (collagen gel contraction)” value [3] read?
Its value is “disrupted fibroblasts reorganization and contraction”.

And the “Akt phosphorylation inhibition compared with OMIPALISIB” value ([4]; HLF-1)?
Its value is “better than its GSK counterpart OMIPALISIB”.

What about the IC50 ([4]; Homo sapiens, HLF1, HLF-1, TGF-β 1 ng/ml for 24 hr, read-out: IC50 of TGF-β induced AKT phosphorylation) of the same compound?
Its IC50 is 1.4 nM.

What about the collagen secretion ([5]; HLF-1 cell line, TGFβ stimulated) of the same compound?
Its collagen secretion is “suppresses collagen secretion”.

And the “Collagen 1 and αSMA expression” value [6]?
Its value is “suppressed”.

And the toxicity ([7]; HLF-1)?
Its toxicity is “does not have toxicity”.

And the “concentration at which HLF-1 proliferation is inhibited” value ([7]; MTT assay and Caspase 3 and 7 activity)?
The value was greater than 100 nM.

And the TGFβ-induced collagen production/secretion [8]?
The TGFβ-induced collagen production/secretion was “suppressed”.

For `COc1ncc(-c2ccc3nccc(-c4ccnnc4)c3c2)cc1NS(=O)(=O)c1ccc(F)cc1F` [OMIPALISIB], which “PI-3 Kinase signaling and functional responses” value [9] is on record?
The value was “inhibited PI-3 Kinase signaling and functional responses”.

What does the source list for `COc1ncc(-c2ccc3nccc(-c4ccc(COC(=O)OCCSSCC(NC(=O)CCC(=O)NCc5cc(C(=O)N[C@@H](C)C(=O)N6CC(F)(F)C[C@H]6C#N)ccn5)C(=O)O)nc4)c3c2)cc1NS(=O)(=O)c1ccc(F)cc1F` (some centres unmarked) [FAPL-PI3KI1]?
survival [10]: increased survival; survival ([10]; listed as FAPL_PI3KI-SUH): increased survival rate; hydroxyproline/collagen in lung [10]: decreased hydroxyproline/collagen production; hydroxyproline/collagen in lung ([10]; listed as FAPL_PI3KI-SUH): reduction of hydroxyproline; IC50 ([5]; HLF1-hFAP cell line, read-out: IC50 of collagen secretion/synthesis): < 10 nM; IC50 ([8]; IPF patient cell lines, read-out: IC50 of collagen secretion/synthesis): < 10 nM; TGFβ-induced collagen production/secretion ([8]; listed as FAP_PI3KI1): suppresses TGFβ induced collagen secretion at low drug concentration, better than free PI3KI1 and free GSK drug OMIPALISIB; TGFβ-induced collagen production/secretion ([8]; listed as PI3KI1-FAPL): suppressed
